According to patent US10479784B2, “Substituted pyrazin-2-amines as inhibitors of ATR kinase” (Vertex Pharmaceuticals Incorporated, priority 2008, dated 2019):

Biological target: full-length ATR (Homo sapiens (Human), UniProt Q13535)
Experiment: ATR Inhibition Assay (radioactive-phosphate incorporation)
Assay type: biochemical
Settings: read-out: ATR Ki
How it was run: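 Ki(app) was derived by non-linear regression of background-corrected initial rates of 33P incorporation into an 800 μM target peptide, read by phosphocellulose filter scintillation counting. Reaction conditions: 5 nM full-length ATR, 10 μM [γ-33P]ATP, pH 7.5 Tris buffer with MgCl2 and DTT, 25 °C, 10-min preincubation, 24 h run.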

full-length ATR, sequence (Q13535 whole entry): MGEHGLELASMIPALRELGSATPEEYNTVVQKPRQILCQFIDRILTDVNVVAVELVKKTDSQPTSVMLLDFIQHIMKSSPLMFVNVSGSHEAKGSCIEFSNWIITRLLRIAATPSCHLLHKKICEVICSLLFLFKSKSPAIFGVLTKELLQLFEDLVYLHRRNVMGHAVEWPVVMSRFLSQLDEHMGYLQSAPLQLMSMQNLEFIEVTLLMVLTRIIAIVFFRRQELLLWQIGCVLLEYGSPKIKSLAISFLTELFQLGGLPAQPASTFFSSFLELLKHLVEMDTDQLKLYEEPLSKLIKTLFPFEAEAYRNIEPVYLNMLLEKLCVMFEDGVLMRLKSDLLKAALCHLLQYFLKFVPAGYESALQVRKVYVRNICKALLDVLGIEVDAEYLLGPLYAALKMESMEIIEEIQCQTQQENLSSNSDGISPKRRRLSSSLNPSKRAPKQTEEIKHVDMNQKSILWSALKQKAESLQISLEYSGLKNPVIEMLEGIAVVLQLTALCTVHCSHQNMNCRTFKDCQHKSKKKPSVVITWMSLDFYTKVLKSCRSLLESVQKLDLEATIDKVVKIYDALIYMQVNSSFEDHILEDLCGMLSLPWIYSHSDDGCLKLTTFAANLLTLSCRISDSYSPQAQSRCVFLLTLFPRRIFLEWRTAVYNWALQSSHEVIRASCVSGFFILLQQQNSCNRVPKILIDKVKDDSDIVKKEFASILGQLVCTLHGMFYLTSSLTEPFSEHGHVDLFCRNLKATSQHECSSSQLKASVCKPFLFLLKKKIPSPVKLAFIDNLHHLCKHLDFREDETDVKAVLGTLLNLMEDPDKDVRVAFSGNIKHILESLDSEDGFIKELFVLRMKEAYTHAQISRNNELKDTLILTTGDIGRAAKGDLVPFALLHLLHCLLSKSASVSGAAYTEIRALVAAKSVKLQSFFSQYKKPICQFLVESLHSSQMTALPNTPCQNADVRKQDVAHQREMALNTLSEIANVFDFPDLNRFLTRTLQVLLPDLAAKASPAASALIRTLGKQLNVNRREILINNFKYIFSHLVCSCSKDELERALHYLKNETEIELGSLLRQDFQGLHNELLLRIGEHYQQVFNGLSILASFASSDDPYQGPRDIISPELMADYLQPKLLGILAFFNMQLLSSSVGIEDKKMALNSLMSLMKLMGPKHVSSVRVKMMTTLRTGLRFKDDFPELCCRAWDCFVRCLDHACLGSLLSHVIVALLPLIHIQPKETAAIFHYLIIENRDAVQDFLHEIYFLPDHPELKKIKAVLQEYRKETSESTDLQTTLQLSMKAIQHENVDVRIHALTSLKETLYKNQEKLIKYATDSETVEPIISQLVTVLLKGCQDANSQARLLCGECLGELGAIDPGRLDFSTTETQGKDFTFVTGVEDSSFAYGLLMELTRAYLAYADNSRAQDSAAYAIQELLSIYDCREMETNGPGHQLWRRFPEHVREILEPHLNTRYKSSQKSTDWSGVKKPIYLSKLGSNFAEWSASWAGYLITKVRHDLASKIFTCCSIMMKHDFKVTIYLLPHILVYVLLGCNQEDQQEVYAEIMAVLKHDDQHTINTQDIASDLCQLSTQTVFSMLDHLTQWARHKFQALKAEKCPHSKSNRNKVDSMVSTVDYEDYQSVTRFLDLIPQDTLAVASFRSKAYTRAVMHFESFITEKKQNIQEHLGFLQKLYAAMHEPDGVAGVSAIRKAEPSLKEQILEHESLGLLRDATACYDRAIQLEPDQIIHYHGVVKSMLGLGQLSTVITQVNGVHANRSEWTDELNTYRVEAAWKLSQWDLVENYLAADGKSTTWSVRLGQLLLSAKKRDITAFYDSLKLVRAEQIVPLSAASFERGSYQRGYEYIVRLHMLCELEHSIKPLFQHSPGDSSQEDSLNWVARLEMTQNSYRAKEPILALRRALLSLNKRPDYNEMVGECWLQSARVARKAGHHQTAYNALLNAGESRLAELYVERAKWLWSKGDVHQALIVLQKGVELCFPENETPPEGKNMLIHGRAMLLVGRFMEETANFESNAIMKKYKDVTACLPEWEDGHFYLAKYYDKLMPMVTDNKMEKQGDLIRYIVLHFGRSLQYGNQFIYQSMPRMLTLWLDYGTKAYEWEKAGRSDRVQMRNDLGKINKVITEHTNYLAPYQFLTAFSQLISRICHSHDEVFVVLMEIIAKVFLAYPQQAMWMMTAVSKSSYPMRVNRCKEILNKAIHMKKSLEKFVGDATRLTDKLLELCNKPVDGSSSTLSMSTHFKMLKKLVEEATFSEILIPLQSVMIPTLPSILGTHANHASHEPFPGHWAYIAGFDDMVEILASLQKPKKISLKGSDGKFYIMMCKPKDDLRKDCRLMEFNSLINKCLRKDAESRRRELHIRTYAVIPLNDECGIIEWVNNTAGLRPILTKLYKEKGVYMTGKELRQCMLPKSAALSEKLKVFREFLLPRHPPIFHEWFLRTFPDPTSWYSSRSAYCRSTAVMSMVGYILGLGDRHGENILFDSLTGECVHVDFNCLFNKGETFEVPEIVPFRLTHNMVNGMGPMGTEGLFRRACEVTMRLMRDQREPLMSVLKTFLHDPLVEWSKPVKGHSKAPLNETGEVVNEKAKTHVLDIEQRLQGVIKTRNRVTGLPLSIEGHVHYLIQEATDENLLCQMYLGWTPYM

Compound | Ki [nM]
Cc1ccccc1-c1cnc(N)c(C(=O)Nc2ccccc2)n1 [Compound I-11, 3-amino-N-phenyl-6-o-tolylpyrazine-2-carboxamide] | 100 to 5000
COC1CN(C(=O)c2ccc(-c3cnc(N)c(C(=O)Nc4ccccc4)n3)cc2)C1 [Compound I-44, 3-amino-6-(4-(3-methoxyazetidine-1-carbonyl)phenyl)-N-phenylpyrazine-2-carboxamide] | 10 to 100
N#Cc1cccc(-c2cnc(N)c(C(=O)Nc3ccccc3)n2)c1 [Compound I-10, 3-amino-6-(3-cyanophenyl)-N-phenylpyrazine-2-carboxamide] | 100 to 5000
CNCc1ccc(-c2nnc(-c3nc(-c4ccc(S(=O)(=O)C(C)CC(C)(C)O)cc4)cnc3N)o2)c(F)c1 (stereo not shown) [IA-328, 4-[4-[5-amino-6-[5-[2-fluoro-4-(methylaminomethyl)phenyl]-1,3,4-oxadiazol-2-yl]pyrazin-2-yl]phenyl]sulfonyl-2-methyl-pentan-2-ol] | ≤ 10
CC(C)S(=O)(=O)c1ccc(-c2cnc(N)c(-c3nnc(NC(=O)C(C)(C)N)o3)n2)cc1 [IA-219, 2-amino-N-[5-[3-amino-6-(4-isopropylsulfonylphenyl)pyrazin-2-yl]-1,3,4-oxadiazol-2-yl]-2-methyl-propanamide] | 100 to 5000
CN(C)c1cccc(NC(=O)c2nc(-c3cccnc3)cnc2N)c1 [Compound I-90, 3-amino-N-(3-(dimethylamino)phenyl)-6-(pyridin-3-yl)pyrazine-2-carboxamide] | 100 to 5000
CC(C)S(=O)(=O)c1ccc(-c2cnc(N)c(-c3nnc(CCCCN)o3)n2)cc1 [IA-92, 3-[5-(4-aminobutyl)-1,3,4-oxadiazol-2-yl]-5-(4-isopropylsulfonylphenyl) pyrazin-2-amine] | 100 to 5000
Nc1ncc(-c2ccc(C(=O)N3CCCCC3)cc2)nc1C(=O)Nc1ccccc1 [Compound I-78, 3-amino-N-phenyl-6-(4-(piperidine-1-carbonyl)phenyl)pyrazine-2-carboxamide] | 10 to 100
CN(C)C(=O)c1ccc(-c2cnc(N)c(-c3nnc(-c4ccccc4OCCNC(=O)OC(C)(C)C)o3)n2)cc1 [IA-175, tert-butyl N-[2-[2-[5-[3-amino-6-[4-(dimethylcarbamoyl)phenyl]pyrazin-2-yl]-1,3,4-oxadiazol-2-yl]phenoxy]ethyl]carbamate] | ≤ 10
CS(=O)(=O)c1ccc(-c2cnc(N)c(-c3nc4ccccc4[nH]3)n2)cc1 [Compound I-123, 3-(1H-benzo[d]imidazol-2-yl)-5-(4-(methylsulfonyl)phenyl)pyrazin-2-amine] | 10 to 100
Cc1ccc2nc(-c3nc(-c4ccc(C(=O)N5CCCNCC5)cc4)cnc3N)[nH]c2c1 [III-1, (4-(5-amino-6-(6-methyl-1H-benzo[d]imidazol-2-yl)pyrazin-2-yl)phenyl) (1,4-diazepan-1-yl)methanone] | 10 to 100
Nc1ncc(-c2ccc(C(=O)N3CCC(O)C3)cc2)nc1C(=O)Nc1ccccc1 (stereo not shown) [Compound I-75, 3-amino-6-(4-(3-hydroxypyrrolidine-1-carbonyl)phenyl)-N-phenylpyrazine-2-carboxamide] | 10 to 100
CN(C)C(=O)c1ccc(-c2cnc(N)c(-c3nnc(Nc4cccc(Cl)c4)o3)n2)cc1 [IA-43] | 10 to 100

Next, values leading:

Ki [nM] | Compound
10 to 100 | CC(C)S(=O)(=O)c1ccc(-c2cnc(N)c(-c3nnc(-c4ccc(C#N)cc4)o3)n2)cc1 [IA-273, 4-[5-[3-amino-6-(4-isopropylsulfonylphenyl)pyrazin-2-yl]-1,3,4-oxadiazol-2-yl]benzonitrile]
10 to 100 | Nc1ncc(-c2cccnc2)nc1-c1nnc(-c2ccccc2)o1 [IA-64]
100 to 5000 | Nc1ncc(-c2ccccc2-c2ccccc2)nc1-c1nnc(-c2ccccc2)o1 [IA-134, 3-(5-phenyl-1,3,4-oxadiazol-2-yl)-5-(2-phenylphenyl)pyrazin-2-amine]
≤ 10 | CN(C)C(=O)c1ccc(-c2cnc(N)c(-c3nnc(-c4ccccc4OCCO)o3)n2)cc1 [IA-196, 4-[5-amino-6-[5-[2-(2-hydroxyethoxy)phenyl]-1,3,4-oxadiazol-2-yl]pyrazin-2-yl]-N,N-dimethyl-benzamide]
10 to 100 | CC(C)S(=O)(=O)c1ccc(-c2cnc(N)c(-c3nnc(-c4cccc(C5CNC5)c4)o3)n2)cc1 [IA-185, 3-[5-[3-(azetidin-3-yl)phenyl]-1,3,4-oxadiazol-2-yl]-5-(4-isopropylsulfonylphenyl)pyrazin-2-amine]
≤ 10 | CNCc1ccc(-c2nnc(-c3nc(-c4ccc(S(=O)(=O)C5CCOC5)cc4)cnc3N)o2)cc1 (stereo not shown) [IA-302, 3-[5-[4-(methylaminomethyl)phenyl]-1,3,4-oxadiazol-2-yl]-5-(4-tetrahydrofuran-3-ylsulfonylphenyl)pyrazin-2-amine]
100 to 5000 | CC(C)S(=O)(=O)c1ccc(-c2cnc(N)c(-c3nnc(N4CCC(N)C4)o3)n2)cc1 (stereo not shown) [IA-188, 3-[5-(3-aminopyrrolidin-1-yl)-1,3,4-oxadiazol-2-yl]-5-(4-isopropylsulfonylphenyl)pyrazin-2-amine]
10 to 100 | Nc1ncc(-c2ccc(S(=O)(=O)N3CCNCC3)cc2)nc1-c1nnc(-c2ccccc2)o1 [IA-24]
100 to 5000 | CN(C)C(=O)c1ccc(-c2cnc(N)c(-c3nnc(N(C)c4ccccc4)o3)n2)cc1 [IA-250, 4-[5-amino-6-[5-(N-methylanilino)-1,3,4-oxadiazol-2-yl]pyrazin-2-yl]-N,N-dimethyl-benzamide]
≤ 10 | Nc1ncc(-c2ccc(C(=O)N3CCCNCC3)c(F)c2)nc1-c1nnc(-c2ccccc2)o1 [IA-6]
≤ 10 | CNCc1ccc(-c2nnc(-c3nc(-c4ccc(S(=O)(=O)CCCO)cc4)cnc3N)o2)cc1 [IA-301, 3-[4-[5-amino-6-[5-[4-(methylaminomethyl)phenyl]-1,3,4-oxadiazol-2-yl]pyrazin-2-yl]phenyl]sulfonylpropan-1-ol]
10 to 100 | Nc1ncc(-c2cnc(C(=O)N3CCCNCC3)nc2)nc1-c1nnc(-c2ccccc2)o1 [IA-37]
100 to 5000 | Nc1ncc(-c2ccccc2-c2cnco2)nc1-c1nnc(-c2ccccc2)o1 [IA-207, 5-(2-oxazol-5-ylphenyl)-3-(5-phenyl-1,3,4-oxadiazol-2-yl)pyrazin-2-amine]
≤ 10 | CNCc1ccc(-c2nnc(-c3nc(-c4ccc(S(=O)(=O)C(C)CCO)cc4)cnc3N)o2)c(F)c1 (stereo not shown) [IA-342, 3-[4-[5-amino-6-[5-[2-fluoro-4-(methylaminomethyl)phenyl]-1,3,4-oxadiazol-2-yl]pyrazin-2-yl]phenyl]sulfonylbutan-1-ol]
10 to 100 | CC1CN(C(=O)c2ccc(-c3cnc(N)c(-c4nnc(-c5ccccc5)o4)n3)cc2)CCN1 (stereo not shown) [IA-17]
10 to 100 | CSc1ccccc1-c1cnc(N)c(-c2nnc(-c3ccccc3)o2)n1 [IA-230, 5-(2-methylsulfanylphenyl)-3-(5-phenyl-1,3,4-oxadiazol-2-yl)pyrazin-2-amine]
≤ 10 | CN(C)C(=O)c1ccc(-c2cnc(N)c(-c3nnc(-c4cccc(N)c4)o3)n2)cc1 [IA-142, 4-[5-amino-6-[5-(3-aminophenyl)-1,3,4-oxadiazol-2-yl]pyrazin-2-yl]-N,N-dimethyl-benzamide]
≤ 10 | CNCc1ccc(-c2nnc(-c3nc(-c4ccc(S(=O)(=O)C(C)C)cc4)cnc3N)o2)c(F)c1 [IA-130, 3-[5-[2-fluoro-4-(methylaminomethyl)phenyl]-1,3,4-oxadiazol-2-yl]-5-(4-isopropylsulfonylphenyl)pyrazin-2-amine]
